The values that follow come from ChEMBL document CHEMBL3102829, “Resveratrol oligomers inhibit biofilm formation of Escherichia coli O157:H7 and Pseudomonas aeruginosa” (J Nat Prod, 2014).

Data set [1] has as its system Escherichia coli. Put plainly: Antibiofilm activity against Escherichia coli O157:H7 after 24 hrs by GFP-based confocal laser microscopy. Format: functional, organism-based.
In data set [2] the test system is Escherichia coli. Put plainly: Antibiofilm activity against Escherichia coli O157:H7 assessed as induction of flhD gene expression at 20 ug/ml after 5 hrs by qRT-PCR analysis. Format: functional, organism-based. On the technique in general: In qPCR the cycle at which signal appears reflects the starting amount.
Data set [3] relates to Escherichia coli. Kind of data set: Antibiofilm activity against Escherichia coli O157:H7 assessed as induction of fliA gene expression at 20 ug/ml after 5 hrs by qRT-PCR analysis. The format is functional, organism-based.
The subject of data set [4] is Pseudomonas aeruginosa. Kind of data set: Antibiofilm activity against Pseudomonas aeruginosa PA14 after 24 hrs by GFP-based confocal laser microscopy. The format is functional, organism-based.
Data set [5] deals with Escherichia coli. Kind of data set: Antibiofilm activity against Escherichia coli O157:H7 after 24 hrs by spectrophotometry. Format: functional, organism-based.
Data set [6] deals with Escherichia coli. Put plainly: Antibiofilm activity against Escherichia coli O157:H7 assessed as induction of motB gene expression at 20 ug/ml after 5 hrs by qRT-PCR analysis. Format: functional, organism-based.
In data set [7] the test system is Escherichia coli. Put plainly: Antibiofilm activity against Escherichia coli O157:H7 assessed as induction of qseB gene expression at 20 ug/ml after 5 hrs by qRT-PCR analysis. Format: functional, organism-based.
Data set [8] concerns Pseudomonas aeruginosa. Kind of data set: Antibiofilm activity against Pseudomonas aeruginosa PA14 after 24 hrs by spectrophotometry. Format: functional, organism-based.
Data set [9] has as its system Escherichia coli. Put plainly: Antibiofilm activity against Escherichia coli O157:H7 assessed as repression of csgF expression at 20 ug/ml after 5 hrs by qRT-PCR analysis. The format is functional, organism-based.
In data set [10] the test system is Escherichia coli. Kind of data set: Antibiofilm activity against Escherichia coli O157:H7 assessed as repression of csgD expression at 20 ug/ml after 5 hrs by qRT-PCR analysis. The format is functional, organism-based.
The subject of data set [11] is Escherichia coli. Kind of data set: Antibiofilm activity against Escherichia coli O157:H7 assessed as repression of csgC expression at 20 ug/ml after 5 hrs by qRT-PCR analysis. Format: functional, organism-based.
Data set [12] concerns Escherichia coli. Kind of data set: Antibiofilm activity against Escherichia coli O157:H7 assessed as repression of csgA expression at 20 ug/ml after 5 hrs by qRT-PCR analysis. Format: functional, organism-based.
The test system of data set [13] is Escherichia coli. Put plainly: Antibiofilm activity against Escherichia coli O157:H7 assessed as repression of csgG expression at 20 ug/ml after 5 hrs by qRT-PCR analysis. Format: functional, organism-based.
For data set [14], the system named is Escherichia coli. Kind of data set: Antibiofilm activity against Escherichia coli O157:H7 assessed as effect on rrsG expression at 20 ug/ml after 5 hrs by qRT-PCR analysis. The format is functional, organism-based.
In data set [15] the test system is Escherichia coli. Put plainly: Antibiofilm activity against Escherichia coli O157:H7 assessed as repression of csgB expression at 20 ug/ml after 5 hrs by qRT-PCR analysis. Format: functional, organism-based.
Data set [16] deals with Escherichia coli. Kind of data set: Antimicrobial activity against Escherichia coli O157:H7 by spectrophotometry. The format is organism-based. The settings on record: in vivo.
For data set [17], the system named is Escherichia coli. Kind of data set: Reduction in fimbriae production in Escherichia coli O157:H7 biofilm grown on nylon filter at 20 ug/ml after 24 hrs by scanning electron microscopy. The format is functional, organism-based.
Data set [18] deals with Escherichia coli. Kind of data set: Antimicrobial activity against Escherichia coli O157:H7 assessed as growth inhibition up to 50 ug/ml by spectrophotometry. As to conditions: in vivo. Format: organism-based.
Data set [19] relates to Escherichia coli. Kind of data set: Antibiofilm activity against Escherichia coli O157:H7 at 5 ug/ml after 24 hrs by spectrophotometry. Format: functional. The settings on record: O157:H7, 24 h.
Data set [20] deals with Pseudomonas aeruginosa. Put plainly: Antibiofilm activity against Pseudomonas aeruginosa PA14 assessed as growth inhibition at 50 ug/ml by spectrophotometry. The format is functional, organism-based.

The source made the active and inactive calls. No cut-off for these calls is given here.

As for `Oc1ccc([C@@H]2c3c(O)cc(O)cc3[C@@H]3c4c(cc(O)c5c4[C@@H]2[C@@H](c2ccc(O)cc2)[C@@H]5c2cc(O)cc(O)c2)O[C@@H]3c2ccc(O)cc2)cc1` (relative stereo), the inhibition result with Escherichia coli [1], in the data set on Escherichia coli [5] and in the data set on Pseudomonas aeruginosa [8] was “Dose-dependent effect” each time. Moreover, the result in the data set on Escherichia coli [2], in the data set on Escherichia coli [3], in the data set with Escherichia coli [6] and in the data set with Escherichia coli [7] was inactive. For the same compound, in the data set with Pseudomonas aeruginosa [4], the inhibition entry was “Active”.

For the compound `Oc1ccc([C@H]2c3c(O)cc(O)cc3[C@@H]3c4c(cc(O)c5c4[C@@H]2[C@@H](c2ccc(O)cc2)[C@@H]5c2cc(O)cc(O)c2)O[C@@H]3c2ccc(O)cc2)cc1` (relative stereo), the inhibition result in the data set with Escherichia coli [1], in the data set with Escherichia coli [5] and in the data set on Pseudomonas aeruginosa [8] was “Dose-dependent effect” in each case. Also, the result in the data set with Escherichia coli [9], in the data set on Escherichia coli [10], in the data set on Escherichia coli [11], in the data set on Escherichia coli [12], in the data set with Escherichia coli [13] and in the data set on Escherichia coli [15] was Active. Moreover, the result with Escherichia coli [2], in the data set with Escherichia coli [14], in the data set with Escherichia coli [3], in the data set on Escherichia coli [6] and in the data set with Escherichia coli [7] was inactive. For the same compound, the inhibition result with Pseudomonas aeruginosa [4] is “Active”.

As for `Oc1ccc(/C=C/c2cc(O)cc3c2[C@@H](c2cc(O)cc(O)c2)[C@H](c2ccc(O)cc2)O3)cc1` [EPSILON-VINIFERIN], the outcome in the data set on Escherichia coli [9], in the data set with Escherichia coli [10], in the data set with Escherichia coli [11], in the data set on Escherichia coli [12], in the data set with Escherichia coli [13] and in the data set on Escherichia coli [15] was Active. In the data set on Escherichia coli [17], the result was Active. Besides, the “growth inhibition (GI)” value in the data set on Escherichia coli [16] is “Dose-dependent effect”. The result with Escherichia coli [2], in the data set on Escherichia coli [14], with Escherichia coli [3], with Escherichia coli [6] and with Escherichia coli [7] was inactive. Also, the inhibition result in the data set with Escherichia coli [5] is “Dose-dependent effect”.

For the compound `Oc1ccc(/C=C/c2cc(O)cc(O)c2)cc1` [RESVERATROL], the result with Escherichia coli [9], in the data set with Escherichia coli [10], in the data set on Escherichia coli [11], in the data set with Escherichia coli [12], in the data set on Escherichia coli [13] and in the data set on Escherichia coli [15] was Active. Also, the result in the data set on Escherichia coli [17] was Active. Also, in the data set on Escherichia coli [16], the “growth inhibition (GI)” value was “Dose-dependent effect”. The result in the data set on Escherichia coli [14] was inactive. Also, the inhibition entry with Pseudomonas aeruginosa [4] and with Pseudomonas aeruginosa [8] was “Active” throughout. In addition, the inhibition result in the data set with Escherichia coli [5] was “Dose-dependent effect”.

For `Oc1ccc([C@H]2c3c(O)cc(O)cc3[C@H]3c4c(cc(O)cc4[C@@H]2c2cc(/C=C/c4cc(O)cc5c4[C@H](c4cc(O)cc(O)c4)[C@@H](c4ccc(O)cc4)O5)ccc2O)O[C@@H]3c2ccc(O)cc2)cc1` [VITISIN A], the result in the data set on Escherichia coli [2], with Escherichia coli [3], with Escherichia coli [6] and in the data set with Escherichia coli [7] was inactive. For the same compound, the Activity result in the data set on Escherichia coli [18] is “Non-toxic”. For the same compound, the inhibition result with Pseudomonas aeruginosa [4] was “Active”. In addition, the inhibition result with Escherichia coli [5] is “inactive”. Further, in the data set with Pseudomonas aeruginosa [8], the inhibition entry is “Dose-dependent effect”.

With `Oc1ccc([C@H]2Oc3cc(O)cc(/C=C/c4ccc5c(c4)[C@@H](c4cc(O)cc6c4[C@H](c4cc(O)cc(O)c4)[C@@H](c4ccc(O)cc4)O6)[C@H](c4ccc(O)cc4)O5)c3[C@@H]2c2cc(O)cc(O)c2)cc1` [VITISIN B], the inhibition at 5 µg/mL in the data set on Escherichia coli [19] is > 90%. The inhibition result in the data set with Escherichia coli [1], with Escherichia coli [5] and with Pseudomonas aeruginosa [8] was “Dose-dependent effect” each time. Moreover, the outcome in the data set on Escherichia coli [9], in the data set with Escherichia coli [10], in the data set with Escherichia coli [11], in the data set on Escherichia coli [12], with Escherichia coli [2] and with Escherichia coli [13] was Active. In addition, the result with Escherichia coli [3], in the data set with Escherichia coli [15], in the data set on Escherichia coli [6], with Escherichia coli [7] and in the data set with Escherichia coli [17] was Active. Also, the inhibition entry in the data set on Pseudomonas aeruginosa [20] is “inactive”. For the same compound, in the data set on Escherichia coli [14], the result was inactive. Further, the Activity entry in the data set with Escherichia coli [18] is “Non-toxic”. Moreover, in the data set with Pseudomonas aeruginosa [4], the inhibition entry is “Active”.

Usually inhibition stands for the percentage by which the read-out fell short of the control.
